Molecular target: human PD-L1 / Human PD-1 (Homo sapiens (Human), UniProt Q9NZQ7)
Test: Enzyme-Linked Immunosorbent Assay (ELISA), PD-1/PD-L1 binding
Details: plate-coated human PD-L1, biotinylated human PD-1
Method in brief: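 Compound dilutions (1:5 series) competed with 0.3 μg/mL biotin-labelled human PD-1 for PD-L1 immobilised at […], for 1 h at 37 °C. Read-out was A450 after streptavidin-HRP and a 20 min TMB reaction, stopped with 2 N H2SO4.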

human PD-L1 / Human PD-1, sequence (Q9NZQ7 19-239): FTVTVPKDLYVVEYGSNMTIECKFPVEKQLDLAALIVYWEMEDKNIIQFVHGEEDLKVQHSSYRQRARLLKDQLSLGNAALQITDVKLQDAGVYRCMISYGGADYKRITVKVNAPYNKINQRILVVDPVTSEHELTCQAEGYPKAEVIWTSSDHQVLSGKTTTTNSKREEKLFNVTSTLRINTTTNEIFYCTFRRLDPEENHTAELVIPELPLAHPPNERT

Cc1c(OCCCN2CCC(CO)CC2)cccc1-c1cccc2c1CC[C@@H]2Oc1cc(OCc2cncc(C#N)c2)c(CN[C@H](C(=O)O)[C@@H](C)O)cc1Cl and Cc1c(OCCCN2CC(O)C2)cccc1-c1cccc2c1CC[C@@H]2Oc1cc(OCc2cncc(C#N)c2)c(CN[C@H](C(=O)O)[C@@H](C)O)cc1Cl cannot be ordered by IC50: under 5 nM for the first, under 5 nM for the second.

C[C@@](CO)(NCc1cc(Cl)c(O[C@H]2CCc3c(-c4cccc(OCCCN5CCC(O)CC5)c4Cl)cccc32)cc1OCc1cncc(C#N)c1)C(=O)O and N#Cc1cncc(COc2cc(O[C@H]3CCc4c(-c5cccc(OCCCN6CCC(O)CC6)c5Cl)cccc43)c(Cl)cc2CN[C@@H](CO)C(=O)O)c1 cannot be ordered by IC50: under 5 nM for the first, under 5 nM for the second.

N#Cc1cncc(COc2cc(O[C@H]3CCc4c(-c5cccc(OCCCN6CCC(F)CC6)c5Cl)cccc43)c(Cl)cc2CN[C@H]2CCC(=O)NC2)c1 and N#Cc1cncc(COc2cc(O[C@H]3CCc4c(-c5cccc(OCCCN6CCC(F)CC6)c5Cl)cccc43)c(Cl)cc2CN[C@@H]2CCC(=O)NC2)c1 cannot be ordered by IC50: under 5 nM for the first, under 5 nM for the second.

N#Cc1cncc(COc2cc(O[C@H]3CCc4c(-c5cccc(OCCCN6CC7(CC(O)C7)C6)c5Cl)cccc43)c(Cl)cc2CN[C@H]2CCC[C@@H]2O)c1 and N#Cc1cncc(COc2cc(O[C@H]3CCc4c(-c5cccc(OCCCN6CC7(CC(F)C7)C6)c5Cl)cccc43)c(Cl)cc2CN[C@@H]2CCC[C@@H]2O)c1 cannot be ordered by IC50: under 5 nM for the first, under 5 nM for the second.

N#Cc1cncc(COc2cc(O[C@H]3CCc4c(-c5cccc(OCCCN6CC7(CC(O)C7)C6)c5Cl)cccc43)c(Cl)cc2CN2CCCC3(C2)NC(=O)NC3=O)c1 (stereo partly shown) and N#Cc1cncc(COc2cc(O[C@H]3CCc4c(-c5cccc(OCCCN6CC7(CC(O)C7)C6)c5Cl)cccc43)c(Cl)cc2CN2CCC3(C2)NC(=O)NC3=O)c1 (stereo partly shown) fall in the same range of IC50: 5 to 500 nM for the first, 5 to 500 nM for the second.

N#Cc1cc(C#N)cc(COc2cc(O[C@H]3CCc4c(-c5cccc(OCCCN6CCC(F)CC6)c5Cl)cccc43)c(Cl)cc2CNC[C@H]2CCC(=O)N2)c1 and Cc1c(OCCCN2CCC(C)CC2)cccc1-c1cccc2c1CC[C@@H]2Oc1cc(OCc2cc(C#N)cc(C#N)c2)c(CNC[C@H]2CCC(=O)N2)cc1Cl cannot be ordered by IC50: under 5 nM for the first, under 5 nM for the second.

Compared with N#Cc1cncc(COc2cc(O[C@H]3CCc4c(-c5cccc(OCCC(N)=O)c5Cl)cccc43)c(Cl)cc2CN[C@@H]2CCCC[C@@H]2O)c1, N#Cc1cncc(COc2cc(O[C@H]3CCc4c(-c5cccc(OCCCN6CCC6)c5Cl)cccc43)c(Cl)cc2CN[C@@H]2CCCC[C@@H]2O)c1 is lower in IC50: 5 to 500 nM for the first, under 5 nM for the second. The second is the more potent here.

First: N#Cc1cncc(COc2cc(O[C@H]3CCc4c(-c5cccc(OCCC(N)=O)c5Cl)cccc43)c(Cl)cc2CNC[C@H]2CCC(=O)N2)c1
Second: N#Cc1cncc(COc2cc(O[C@H]3CCc4c(-c5cccc(OCCCN6CCC6)c5Cl)cccc43)c(Cl)cc2CNC[C@H]2CCC(=O)N2)c1
The IC50 of the first is higher: 5 to 500 nM for the first, under 5 nM for the second. The second is the more potent here.

N#Cc1cncc(COc2cc(O[C@H]3CCc4c(-c5cccc(OCCCN6CC7(CC(F)C7)C6)c5Cl)cccc43)c(Cl)cc2CN[C@@H]2CCC[C@H]2O)c1 and N#Cc1cncc(COc2cc(O[C@H]3CCc4c(-c5cccc(OCCCN6CC7(CC(F)C7)C6)c5Cl)cccc43)c(Cl)cc2CN[C@H]2CCC[C@H]2O)c1 cannot be ordered by IC50: under 5 nM for the first, under 5 nM for the second.

N#Cc1cncc(COc2cc(O[C@H]3CCc4c(-c5cccc(OCCCN6CC7(CC(F)C7)C6)c5Cl)cccc43)c(Cl)cc2CN2CCC3(C2)NC(=O)NC3=O)c1 (stereo partly shown) and N#Cc1cncc(COc2cc(O[C@H]3CCc4c(-c5cccc(OCCCN6CC7(CC(F)C7)C6)c5Cl)cccc43)c(Cl)cc2CN2CC3(C2)NC(=O)NC3=O)c1 fall in the same range of IC50: 5 to 500 nM for the first, 5 to 500 nM for the second.

Cc1c(OCCCN2CCCCC2)cccc1-c1cccc2c1CC[C@@H]2Oc1cc(OCc2cc(C#N)cc(C#N)c2)c(CNC[C@H]2CCC(=O)N2)cc1Cl and Cc1c(OCCCN2CCC(C)CC2)cccc1-c1cccc2c1CC[C@@H]2Oc1cc(OCc2cc(C#N)cc(C#N)c2)c(CNC[C@@H]2CCC(=O)N2)cc1Cl cannot be ordered by IC50: under 5 nM for the first, under 5 nM for the second.

Cc1c(OCCCN2CCCCC2)cccc1-c1cccc2c1CC[C@@H]2Oc1cc(OCc2cc(C#N)cc(C#N)c2)c(CN[C@@H]2CCCC[C@@H]2O)cc1Cl and Cc1c(OCCCN2CCC(F)CC2)cccc1-c1cccc2c1CC[C@@H]2Oc1cc(OCc2cc(C#N)cc(C#N)c2)c(CN[C@@H]2CCC[C@@H]2O)cc1Cl cannot be ordered by IC50: under 5 nM for the first, under 5 nM for the second.

Cc1c(OCCCN2CCC(F)CC2)cccc1-c1cccc2c1CC[C@@H]2Oc1cc(OCc2cc(C#N)cc(C#N)c2)c(CN2CCC3(C2)NC(=O)NC3=O)cc1Cl (stereo partly shown) and Cc1c(OCCCN2CCC(F)CC2)cccc1-c1cccc2c1CC[C@@H]2Oc1cc(OCc2cc(C#N)cc(C#N)c2)c(CN2CC3(C2)NC(=O)NC3=O)cc1Cl fall in the same range of IC50: 5 to 500 nM for the first, 5 to 500 nM for the second.

Cc1c(OCCCN2CCC(F)CC2)cccc1-c1cccc2c1CC[C@@H]2Oc1cc(OCc2cc(C#N)cc(C#N)c2)c(CN[C@@H]2CCOC[C@H]2O)cc1Cl and Cc1c(OCCCN2CCC(F)CC2)cccc1-c1cccc2c1CC[C@@H]2Oc1cc(OCc2cc(C#N)cc(C#N)c2)c(CN[C@H]2CCOC[C@H]2O)cc1Cl cannot be ordered by IC50: under 5 nM for the first, under 5 nM for the second.

Cc1c(OCCCN2CCC(F)CC2)cccc1-c1cccc2c1CC[C@@H]2Oc1cc(OCc2cc(C#N)cc(C#N)c2)c(CN[C@@H]2CCC[C@H]2O)cc1Cl and Cc1c(OCCCN2CCC(F)CC2)cccc1-c1cccc2c1CC[C@@H]2Oc1cc(OCc2cc(C#N)cc(C#N)c2)c(CN[C@H]2CCC[C@@H]2O)cc1Cl cannot be ordered by IC50: under 5 nM for the first, under 5 nM for the second.

First: N#Cc1cncc(COc2cc(O[C@H]3CCc4c(-c5cccc(OCCCN6CCC(F)CC6)c5Cl)cccc43)c(Cl)cc2CN2CC3(C2)NC(=O)NC3=O)c1
Second: N#Cc1cncc(COc2cc(O[C@H]3CCc4c(-c5cccc(OCCCN6CC7(C6)CC(F)(F)C7)c5Cl)cccc43)c(Cl)cc2CN2CC3(C2)NC(=O)NC3=O)c1
The IC50 of the first is lower: under 5 nM for the first, 5 to 500 nM for the second. The first is the more potent here.

N#Cc1cncc(COc2cc(O[C@H]3CCc4c(-c5cccc(OCCCN6CCC(F)CC6)c5Cl)cccc43)c(Cl)cc2CN[C@H]2CC[C@@H]2O)c1 and N#Cc1cncc(COc2cc(O[C@H]3CCc4c(-c5cccc(OCCCN6CCC(F)CC6)c5Cl)cccc43)c(Cl)cc2CN[C@@H]2CC[C@H]2O)c1 cannot be ordered by IC50: under 5 nM for the first, under 5 nM for the second.

First: Cc1c(OCCCN2CCC(F)CC2)cccc1-c1cccc2c1CC[C@@H]2Oc1cc(OCc2cc(C#N)cc(C#N)c2)c(CN[C@H]2CCC[C@H]2O)cc1Cl
Second: Cc1c(OCCCN2CCC(F)CC2)cccc1-c1cccc2c1CC[C@@H]2Oc1cc(OCc2cc(C#N)cc(C#N)c2)c(CN[C@H]2CCC(=O)NC2)cc1Cl
The IC50 of the first is lower: under 5 nM for the first, 5 to 500 nM for the second. The first is the more potent here.

Cc1c(OCCCN2CCC(C)(F)CC2)cccc1-c1cccc2c1CC[C@@H]2Oc1cc(OCc2cc(C#N)cc(C#N)c2)c(CNC[C@H]2CCC(=O)N2)cc1Cl and Cc1c(OCCCN2CCC(C)(F)CC2)cccc1-c1cccc2c1CC[C@@H]2Oc1cc(OCc2cc(C#N)cc(C#N)c2)c(CNC[C@@H]2CCC(=O)N2)cc1Cl fall in the same range of IC50: 5 to 500 nM for the first, 5 to 500 nM for the second.

N#Cc1cncc(COc2cc(O[C@H]3CCc4c(-c5cccc(OCCCN6CC7(CC(F)C7)C6)c5Cl)cccc43)c(Cl)cc2CN[C@H]2CCC[C@@H]2O)c1 and N#Cc1cncc(COc2cc(O[C@H]3CCc4c(-c5cccc(OCCCN6CC7(CC(F)C7)C6)c5Cl)cccc43)c(Cl)cc2CN[C@H]2CC[C@@H]2O)c1 cannot be ordered by IC50: under 5 nM for the first, under 5 nM for the second.

N#Cc1cncc(COc2cc(O[C@H]3CCc4c(-c5cccc(OCCCN6CC7(CC(F)C7)C6)c5Cl)cccc43)c(Cl)cc2CNC[C@@H]2CCC(=O)N2)c1 and N#Cc1cncc(COc2cc(O[C@H]3CCc4c(-c5cccc(OCCCN6CC7(CC(F)C7)C6)c5Cl)cccc43)c(Cl)cc2CNC[C@H]2CCC(=O)N2)c1 cannot be ordered by IC50: under 5 nM for the first, under 5 nM for the second.

CN1CCC(COc2cccc(-c3cccc4c3CC[C@@H]4Oc3cc(OCc4cncc(C#N)c4)c(CN[C@@H]4CCCC[C@@H]4O)cc3Cl)c2Cl)C1 (stereo partly shown) and CN1CCC(COc2cccc(-c3cccc4c3CC[C@@H]4Oc3cc(OCc4cncc(C#N)c4)c(CNC[C@H]4CCC(=O)N4)cc3Cl)c2Cl)C1 (stereo partly shown) cannot be ordered by IC50: under 5 nM for the first, under 5 nM for the second.

N#Cc1cncc(COc2cc(O[C@H]3CCc4c(-c5cccc(OCCCN6CC7(C6)CC(F)(F)C7)c5Cl)cccc43)c(Cl)cc2CN[C@@H]2CCC[C@@H]2O)c1 and N#Cc1cncc(COc2cc(O[C@H]3CCc4c(-c5cccc(OCCCN6CC7(C6)CC(F)(F)C7)c5Cl)cccc43)c(Cl)cc2CN[C@@H]2CCC[C@H]2O)c1 cannot be ordered by IC50: under 5 nM for the first, under 5 nM for the second.

Compared with Cc1c(OCCCN2CC3(CCC3)C2)cccc1-c1cccc2c1CC[C@@H]2Oc1cc(OCc2cc(C#N)cc(C#N)c2)c(CNC[C@H]2CCC(=O)N2)cc1Cl, Cc1c(OCCCN2CC3(CCC3)C2)cccc1-c1cccc2c1CC[C@@H]2Oc1cc(OCc2cc(C#N)cc(C#N)c2)c(CNC[C@@H]2CCC(=O)N2)cc1Cl is lower in IC50: 5 to 500 nM for the first, under 5 nM for the second. The second is the more potent here.

N#Cc1cncc(COc2cc(O[C@H]3CCc4c(-c5cccc(OCCCN6CC7(C6)CC(F)(F)C7)c5Cl)cccc43)c(Cl)cc2CN[C@H]2CCC[C@H]2O)c1 and N#Cc1cncc(COc2cc(O[C@H]3CCc4c(-c5cccc(OCCCN6CC7(C6)CC(F)(F)C7)c5Cl)cccc43)c(Cl)cc2CN[C@H]2CCC[C@@H]2O)c1 cannot be ordered by IC50: under 5 nM for the first, under 5 nM for the second.

First: Cc1c(OCCCN2CC3(CC(O)C3)C2)cccc1-c1cccc2c1CC[C@@H]2Oc1cc(OCc2cc(C#N)cc(C#N)c2)c(CNC[C@H]2CCC(=O)N2)cc1Cl
Second: Cc1c(OCCCN2CC3(C2)CC(F)(F)C3)cccc1-c1cccc2c1CC[C@@H]2Oc1cc(OCc2cc(C#N)cc(C#N)c2)c(CNC[C@H]2CCC(=O)N2)cc1Cl
The IC50 of the first is lower: under 5 nM for the first, 5 to 500 nM for the second.

First: Cc1c(OCCCN2CCC(C)(F)CC2)cccc1-c1cccc2c1CC[C@@H]2Oc1cc(OCc2cncc(C#N)c2)c(CNC[C@H]2CCC(=O)N2)cc1Cl
Second: Cc1c(OCCCN2CCC(C)(F)CC2)cccc1-c1cccc2c1CC[C@@H]2Oc1cc(OCc2cncc(C#N)c2)c(CNC[C@@H]2CCC(=O)N2)cc1Cl
The IC50 of the first is higher: 5 to 500 nM for the first, under 5 nM for the second.

Compared with Cc1c(OCCCN2CCC(C)(F)CC2)cccc1-c1cccc2c1CC[C@@H]2Oc1cc(OCc2cncc(C#N)c2)c(CN[C@@H]2CCC(=O)NC2)cc1Cl, Cc1c(OCCCN2CCC(C)(F)CC2)cccc1-c1cccc2c1CC[C@@H]2Oc1cc(OCc2cncc(C#N)c2)c(CN[C@H]2CCC(=O)NC2)cc1Cl is higher in IC50: under 5 nM for the first, 5 to 500 nM for the second. The first is the more potent here.

N#Cc1cncc(COc2cc(O[C@H]3CCc4c(-c5cccc(OCCCN6CC7(CC(F)C7)C6)c5Cl)cccc43)c(Cl)cc2CN[C@@H]2CC[C@H]2O)c1 and Cc1c(OCCCN2CC3(CC(F)C3)C2)cccc1-c1cccc2c1CC[C@@H]2Oc1cc(OCc2cc(C#N)cc(C#N)c2)c(CN[C@H]2CCC(=O)NC2)cc1Cl cannot be ordered by IC50: under 5 nM for the first, under 5 nM for the second.

Source: US10919852B2, “Immunomodulator compounds” (CHEMOCENTRYX, INC., priority 2017, dated 2021)
